Assay results: patent US5116863A, “Dibenz[b,e]oxepin derivative and pharmaceutical compositions thereof” (Kyowa Hakko Kogyo Co., Ltd., priority 1986, dated 1992)
Like-named read-outs stand apart in the source and are kept apart here.

Experiments:
[1] = system: homologous PCA (passive cutaneous anaphlaxis) of rats; assay: Homologous PCA (passive cutaneous anaphylaxis) test of rats for 48 hours, oral (antiallergic activity); assay type: in vivo, Wistar male rats; conditions: for minimal effective dose / responders at 0.01 mg/kg / responders at 0.1 mg/kg / responders at 1 mg/kg / responders at 10 mg/kg / responders at 100 mg/kg / responders at 0.001 mg/kg: Rattus norvegicus; for minimal effective dose: read-out: MED (minimum effective dosage), PCA inhibition; for responders at 0.01 mg/kg / responders at 0.1 mg/kg / responders at 1 mg/kg / responders at 10 mg/kg / responders at 100 mg/kg / responders at 0.001 mg/kg: po; for responders at 0.01 mg/kg / responders at 0.1 mg/kg / responders at 1 mg/kg / responders at 10 mg/kg / responders at 100 mg/kg / responders at 0.001 mg/kg / Number of positive zooids in one group of 3 zooids: positive = inhibition rate 50% or higher; for responders at 0.01 mg/kg / responders at 0.1 mg/kg / responders at 1 mg/kg / responders at 10 mg/kg / responders at 100 mg/kg: read-out: Number of positive zooids in one group of 3 zooids (converted); for responders at 0.001 mg/kg: dosage 0.001 mg/kg, read-out: Number of positive zooids in one group of 3 zooids
Procedure: Antiallergic activity was investigated by a homologous PCA (passive cutaneous anaphlaxis) of rats for 48 hours, where Wistar male rats having body weights of 180 to 220 g were used for sampling of antiserum and Wistar male rats having body weights of 120 to 140 g were used for the PCA test.
Anti-egg white albumin (EWA) rat serum was prepared according to Stotland and Share's method [Canad. J. Physiol. Pharmacol. 52, 1114 (1974)]. That is, 1 mg of EWA was mixed with 20 mg of aluminum hydroxide gel and 0.5 ml of mixed vaccine of pertussis, diphtheria and tetanus, and the mixture was subcutaneously administered in four portions into rat's footpad. After 14 days, blood was sampled from the carotid artery, and the serum was separated from the sampled blood, and preserved under freezing at -80° C. The potency of the antiserumin in the homologous PCA for 48 hours was 1:32.
Groups each consisting of 3 rats were used, and 0.05 ml of anti-EWA rat serum diluted with a physiological saline solution to 8 times as much was incutaneously injected each at two positions of depilated back to make the animals passively sensitised. After 47 hours, the compound of the present invention, or its solution (physiological saline solution or CMC solution) was orally administered. One hour thereafter, 0.5 ml/100 g of 1% Evan's blue physiological saline solution containing 2 mg of the antigen EWA was administered into the tail vein, and 30 minutes thereafter, the animals were sacrificed by exsanguination. Then, the skins were stripped and the amount of leaked pigment at the blue-dyed parts was measured according to the Katayama et al method [Microbiol. Immunol. 22, 89 (1978)]. That is, the blue-dyed parts were cut out by scissors, and placed in test tubes containing 1 ml of 1N KOH and incubated at 37° C. for 24 hours. Then, 9 ml of a mixture of 0.6N phosphoric acid and acetone (5:13) was added thereto, and the mixture was shaked and centrifuged at 2,500 rpm for 10 minutes. Absorbancy of the supernatant at […] was measured, and the amount of leaked pigment was quantitatively determined by the calibration curve prepared in advance. An average of measurements at the two position was made a value for one zooid, and inhibition rate for the individual zooid was calculated by the following formula: [formula]

dd, male mice = assay type: in vivo
Procedure: Groups each consisting of 3 dd, male mice having body weights of 20±1 g were used, and the compound of the present invention was administered orally (po: 300 mg/kg) or intraperitoneally (ip: 100 mg/kg).

[2] = minimum dosage with positive case in at least one of three rats
[3] = mice, mortality 7 days after administration

Row | Structure (SMILES) | minimal effective dose [1, 2] | responders at 0.01 mg/kg ([1]; dosage 0.01 mg/kg) | responders at 0.1 mg/kg ([1]; dosage 0.1 mg/kg) | responders at 1 mg/kg ([1]; dosage 1 mg/kg) | responders at 10 mg/kg ([1]; dosage 10 mg/kg) | responders at 100 mg/kg ([1]; dosage 100 mg/kg) | Acute toxicity (MLD), ip (dd, male mice; [3]) | Acute toxicity (MLD), po (dd, male mice; [3]) | Acute toxicity (MLD), ip (dd, male mice; mouse, in vivo, 10080 min) | Acute toxicity (MLD), po (dd, male mice; mouse, in vivo, 10080 min) | responders at 0.001 mg/kg [1] | Number of positive zooids in one group of 3 zooids ([1]; dosage 0.01 mg/kg) | Number of positive zooids in one group of 3 zooids ([1]; dosage 0.1 mg/kg) | Number of positive zooids in one group of 3 zooids ([1]; dosage 1 mg/kg) | Number of positive zooids in one group of 3 zooids ([1]; dosage 10 mg/kg) | Number of positive zooids in one group of 3 zooids ([1]; dosage 100 mg/kg) | MED (minimum effective dosage), PCA inhibition [1, 2]
1 | CN(C)CC/C=C1\c2ccccc2COc2ccc(C(=O)O)cc21 [3'] | 0.1 mg/kg | 0% | 33.3% | 33.3% | 66.7% | 100% | – | – | – | – | – | – | – | – | – | – | –
2 | CN(C)CC/C=C1\c2ccccc2COc2ccc(CC(=O)O)cc21 [20'] | 0.1 mg/kg | 0% | – | 100% | – | – | – | – | – | – | – | – | – | – | – | – | –
3 | CN(C)CC/C=C1/c2ccccc2COc2ccc(C(=O)O)cc21 [Compound 3 (cis), Cis-11-(3-dimethylaminopropylidene)-6,11-dihydrodibenz[b,e]oxepin-2-carboxylic acid] | 0.1 mg/kg | 0% | 100% | 100% | 100% | 100% | > 100 mg/kg | > 300 mg/kg | – | – | – | – | – | – | – | – | –
4 | CCN(CC)CC/C=C1/c2ccccc2COc2ccc(C(=O)O)cc21 [Compound 5, 11-(3-Diethylaminopropylidene)-6,11-dihydrodibenz[b,e]oxepin-2-carboxylic acid] | 1 mg/kg | 0% | – | 100% | 100% | 100% | – | – | > 100 mg/kg | > 300 mg/kg | – | – | – | – | – | – | –
5 | O=C(O)c1ccc2c(c1)C(=CCCN1CCCC1)c1ccccc1CO2 [Compound 7, 11-(3-Pyrrolidinopropylidene)-6,11-dihydrodibenz[b,e]oxepin-2-carboxylic acid] | 1 mg/kg | – | 0% | 33.3% | 66.7% | 100% | > 100 mg/kg | > 300 mg/kg | – | – | – | – | – | – | – | – | –
6 | CN(C)CCCC=C1c2ccccc2COc2ccc(C(=O)O)cc21 [Compound 9, 11-(4-Dimethylaminobutylidene)-6,11-dihydrodibenz[b,e]oxepin-2-carboxylic acid] | 1 mg/kg | 0% | 0% | 66.7% | 100% | 100% | > 100 mg/kg | > 300 mg/kg | – | – | – | – | – | – | – | – | –
7 | CN1CCN(C/C=C2\c3ccccc3COc3ccc(C(=O)O)cc32)CC1 [Compound 11, 11-[2-(4-Methylpiperazino)ethylidene]-6,11-dihydrodibenz[b,e]oxepin-2-carboxylic acid] | 10 mg/kg | – | 0% | 0% | 33.3% | 66.7% | – | – | > 100 mg/kg | > 300 mg/kg | – | – | – | – | – | – | –
8 | O=C(O)c1ccc2c(c1)C(=CCN1CCOCC1)c1ccccc1CO2 [Compound 13, 11-(2-Morpholinoethylidene)-6,11-dihydrodibenz[b,e]oxepin-2-carboxylic acid] | 10 mg/kg | – | 0% | 0% | 33.3% | 100% | > 100 mg/kg | > 300 mg/kg | – | – | – | – | – | – | – | – | –
9 | O=C(O)c1ccc2c(c1)/C(=C\CN1CCSCC1)c1ccccc1CO2 [Compound 15, 11-(2-Thiomorpholinoethylidene)-6,11-dihydrodibenz[b,e]oxepin-2-carboxylic acid] | 100 mg/kg | – | 0% | 0% | 0% | 100% | – | – | – | – | – | – | – | – | – | – | –
10 | CN(C)CC/C=C1/c2ccccc2COc2ccc(CC(=O)O)cc21 [Compound 20 (cis), Cis-11-(3-dimethylaminopropylidene)-6,11-dihydrodibenz[b,e]oxepin-2-acetic acid] | 0.01 mg/kg | 33.3% | 100% | 100% | 100% | 100% | > 100 mg/kg | > 300 mg/kg | – | – | 0% | – | – | – | – | – | –
11 | CN(C)CC/C=C1\c2ccccc2COc2ccc(CC(=O)O)cc21 [Compound 20 (trans), Trans-11-(3-dimethylaminopropylidene)-6,11-dihydrodibenz[b,e]oxepin-2-acetic acid] | – | – | – | – | – | – | > 100 mg/kg | > 300 mg/kg | – | – | 0% | 0/3 | 3/3 | 3/3 | 2/3 | 2/3 | 0.1 mg/kg
12 | CN(C)CCCC=C1c2ccccc2COc2ccc(CC(=O)O)cc21 [Compound 22, 11-(4-Dimethylaminobutylidene)-6,11-dihydrodibenz[b,e]oxepin-2-acetic acid] | 0.1 mg/kg | 0% | 33.3% | 66.7% | 100% | 100% | > 100 mg/kg | > 300 mg/kg | – | – | – | – | – | – | – | – | –
13 | CN1CCN(CC=C2c3ccccc3COc3ccc(CC(=O)O)cc32)CC1 [Compound 26, 11-[2-(4-Methylpiperazino)ethylidene]-6,11-dihydrodibenz[b,e]oxepin-2-acetic acid] | 1 mg/kg | – | 0% | 66.7% | 100% | 100% | > 100 mg/kg | > 300 mg/kg | – | – | – | – | – | – | – | – | –
14 | CN(C)CC/C=C1/c2ccccc2COc2ccc(CCC(=O)O)cc21 [Compound 28 (cis), Cis-3-[11-(3-dimethylaminopropylidene)-6,11-dihydrodibenz[b,e]oxepin-2-yl]-propionic acid] | 0.1 mg/kg | 0% | 33.3% | 100% | 66.7% | 100% | > 100 mg/kg | > 300 mg/kg | – | – | – | – | – | – | – | – | –
15 | CN(C)CC/C=C1\c2ccccc2COc2ccc(CCC(=O)O)cc21 [Compound 28 (trans), Trans-3-[11-(3-dimethylaminopropylidene)-6,11-dihydrodibenz[b,e]oxepin-2-yl]-propionic acid] | 0.01 mg/kg | 33.3% | 66.7% | 66.7% | 100% | 100% | > 100 mg/kg | > 300 mg/kg | – | – | 0% | – | – | – | – | – | –
16 | CN(C)CC/C=C1/c2ccccc2COc2ccc(CCCO)cc21 [Compound 33, Cis-11-(3-dimethylaminopropylidene)-2-(3-hydroxypropyl)-6,11-dihydrodibenz[b,e]oxepin; Trans-11-(3-dimethylaminopropylidene)-2-(3-hydroxypropyl)-6,11-dihydrodibenz[b,e]oxepin] | 1 mg/kg | – | 0% | 33.3% | 100% | 100% | – | – | – | – | – | – | – | – | – | – | –
